Reference: article PMC9855884, “Glycosylated Lipopeptides—Synthesis and Evaluation of Antimicrobial Activity and Cytotoxicity” (Biomolecules, 2023)
Values after ≈ are worked out from the molar mass of the structure shown. Values joined by “and” are separate entries in the source; they are usually repeats but may differ in a detail not shown here. Equal values may be shown once. Marks after values point to notes of the source that are not given here. Where a SMILES comes first, the peptide text is derived from it. The star is where a group is joined. Myristoyl = CCCCCCCCCCCCCC(=O)*

How the values were obtained:
S. aureus biofilm = system: S. aureus biofilm; parameters: method as in PMID 33804887; details: S. aureus ATCC 33591 biofilm; previous studies; cited from earlier work
K. pneumoniae biofilm = system: K. pneumoniae biofilm; parameters: method as in PMID 33804887; details: K. pneumoniae biofilm (Gram-negative strains); previous studies; cited from earlier work
A. baumannii biofilm = system: A. baumannii biofilm; parameters: method as in PMID 33804887; details: A. baumannii biofilm (Gram-negative strains); previous studies; cited from earlier work
P. aeruginosa biofilm = system: P. aeruginosa biofilm; parameters: method as in PMID 33804887; details: P. aeruginosa biofilm (Gram-negative strains); previous studies; cited from earlier work
[1] = Determination of peptide hydrophobicity with RP-HPLC (adjusted retention time); type: physicochemical; details: RP-HPLC as measure of hydrophobicity; Waters X-Bridge Shield RP-18 3.0 × 100 mm, 3.5 μm; linear 20–80% acetonitrile in water over 30 min, 0.1% TFA; 0.5 mL/min; 25.0 °C; peptide 1 g/L in water (0.1% TFA); UV 214 nm; triplicate
Experimental: To determine peptide hydrophobicity, a Waters Alliance e2695 system with a Waters 2998 PDA Detector was used. All analyses were carried out on a Waters X-Bridge Shield RP-18 column (3.0 × 100 mm, 3.5 μm particle size, 130 Å pore size). The peptides were dissolved in water (0.1% TFA, v/v) up to a concentration of 1 g/L. UV detection at 214 nm was used, and samples (10 μL) were eluted with a linear 20–80% acetonitrile gradient in deionized water over 30 min at 25.0 ± 0.1 °C. The mobile phase flow rate was 0.5 mL/min. Both eluents contained 0.1% (v/v) of TFA. Each peptide sample was analyzed in triplicate. Maximum standard deviation and coefficient of variation were 0.046 and 0.23%, respectively.
After synthesis and purification, all the products were analyzed with MS and HPLC to confirm purity and identity of the compounds. […] The chromatographic analyses were performed with RP-HPLC; retention time refers to hydrophobicity of the lipopeptide.

C. glabrata ATCC 15126 = type: cell-based, Candida glabrata; details: ATCC 15126, 24 h
Experimental: The Acinetobacter baumannii ATCC BAA-1605, Enterococcus faecium ATCC 700221, Klebsiella aerogenes ATCC 13048, Klebsiella pneumoniae ATCC 700603, Pseudomonas aeruginosa ATCC 9027, Staphylococcus aureus ATCC 33591, Candida glabrata ATCC 15126, strains were acquired from the American Type Culture Collection (ATCC). All the strains were stored at −80 °C in Roti-Store cryo vials and were transferred into fresh Mueller–Hinton broth (MHB, Becton Dickinson, Warsaw, Poland) for bacteria or RPMI-1640 (Sigma-Aldrich, Steinheim, Germany) for fungi before the tests and incubated for 24 h at 37 °C. Then, the cultures were seeded on the Mueller–Hinton agar (BioMaxima, Lublin, Poland) or Sabouraud dextrose agar (SDA, BioMaxima, Lublin, Poland) plates, respectively, and incubated as just mentioned. These agar cultures were used for further microbiological assays. Cell densities for all assays were adjusted spectrophotometrically (Multiskan GO Microplate Spectrophotometer, Thermo Fisher Scientific, Vantaa, Finland) at 600 and 530 nm for bacteria and fungi, respectively.
The MICs were determined using a broth microdilution method according to the Clinical and Laboratory Standard Institute guidelines. For this purpose, initial inoculums of bacteria (5 × 10^5 CFU/mL) in MHB and yeasts (2 × 10^3 CFU/mL) in RPMI-1640 with 2% D-glucose were exposed to the ranging concentration of lipopeptides (1–512 μg/mL) and incubated at 37 °C for 18 h and 24 h, respectively. The experiments were conducted on 96-well microtiter polystyrene plates (Kartell, Italy). The growth was assessed visually after incubation and the MIC was assumed as the lowest peptide concentration at which a noticeable growth of microorganisms was inhibited. All experiments were conducted in triplicate.

MTT assay, cytotoxicity = type: cell-based, human; details: HaCaT, 24 h incubation at 37 °C, 0.5–500 μg/mL, six replicates per concentration, repeated at least twice
Experimental: To evaluate the cytotoxicity of the test peptides (IC50), the classic MTT assay on 96-well plates was performed for human keratinocytes (HaCaT) which were acquired from the ATCC. The assay was based on colorimetric determination of the cell metabolic activity where the color intensity reflected the number of live cells that could be measured spectrophotometrically. The cell line was cultured in a Dulbecco’s modified Eagle Medium (Invitrogen) supplemented with 10% fetal bovine serum (v/v), 100 units/mL of penicillin, 100 μg/mL of streptomycin, and 2 mM L-glutamine and was kept at 37 °C in a humidified 5% CO2 incubator. Briefly, a day after plating of 500 cells per well, a series of concentrations (0.5–500 μg/mL) of the test compounds were applied. DMSO was added to the control cells at a final concentration of 1.0% (v/v), which was related to the maximum concentration of the solvent compounds used in the experiment. After 24 h of incubation at 37 °C (humidified 5% CO2 incubator) with the peptides, a medium containing 1 mg/mL of MTT was added to the wells up to a final concentration of 0.5 mg/mL. Subsequently, the plates were incubated at 37 °C for 4 h. Then, the medium was aspirated, and the formazan product was solubilized with DMSO. The background absorbance at 630 nm was subtracted from that at 570 nm for each well (Epoch, BioTek Instruments, Winooski, VT, USA). Six replicates were conducted for each concentration. All experiments were repeated at least twice and the resulting IC50 values were calculated with a GraFit 7 software (v. 7.0, Erithacus, Berkley, CA, USA).
The selectivity indexes were calculated for all the strains as IC50/MIC. According to IC50, in most cases, glycosylation caused only a slight decrease in toxicity. However, in contrast with SI calculated for HC50, the differences between USCLs and gUSCLs are not so distinct. […] Moreover, toxicity of USCLs and gUSCLs is high and exceeds their antimicrobial activity. The lipopetides were not selective against Gram-negative strains (K. pneumoniae, A. baumannii, P. aeruginosa, K. aerogenes) over human cells. A few USCLs were selective (SI > 1) against E. faecium and S. aureus with SI up to 1.87; and some gUSCLs were selective against E. faecium but not against S. aureus, with SI between 0.63 and 1.73. […] In this case, SI of gUSCLs was noticeably […] than that of corresponding parent USCLs (2.07, 1.99, 2.67 vs. 2.53, 2.36, 3.46, respectively). Selectivity indexes were plotted against adjusted retention time (Figures S15–S21). A moderate linear correlation was found in USCLs and K. pneumoniae, C. glabrata, and gUSCLs and K. pneumoniae, K. aerogenes (R^2 between 0.6064 and 0.6481). A relatively high linear correlation was obtained for USCLs and K. aerogenes (R^2 of 0.8214) and also for gUSCLs and C. glabrata (R^2 of 0.9223).

E. faecium ATCC 700221 = details: planktonic cells, analyses performed in the previous study; cited from earlier work
From the text: However, enhanced activity with elongation of the hydrocarbon chain length in fatty acid residue and the change of serine position to 2 or 3 could be seen. […] Generally, the lo ...

S. aureus ATCC 33591 = details: planktonic cells, analyses performed in the previous study; cited from earlier work
From the text: Table 2 Antimicrobial activity (MIC [µg/mL]) of lipopeptides 1–18 against planktonic cells. | column: S. aureus ATCC 33591

[2] = system: K. pneumoniae ATCC 700603; details: planktonic cells, analyses performed in the previous study; cited from earlier work
From the text: Table 2 Antimicrobial activity (MIC [µg/mL]) of lipopeptides 1–18 against planktonic cells. | column: K. pneumoniae ATCC 700603

[3] = system: A. baumannii ATCC BAA 1605; details: planktonic cells, analyses performed in the previous study; cited from earlier work
From the text: Table 2 Antimicrobial activity (MIC [µg/mL]) of lipopeptides 1–18 against planktonic cells. | column: A. baumannii ATCC BAA 1605

P. aeruginosa ATCC 9027 = details: planktonic cells, analyses performed in the previous study; cited from earlier work
From the text: Table 2 Antimicrobial activity (MIC [µg/mL]) of lipopeptides 1–18 against planktonic cells. | column: P. aeruginosa ATCC 9027

K. aerogenes ATCC 13048 = details: planktonic cells, analyses performed in the previous study; cited from earlier work
From the text: Table 2 Antimicrobial activity (MIC [µg/mL]) of lipopeptides 1–18 against planktonic cells. | column: K. aerogenes ATCC 13048

[4] = system: human red blood cells (RBCs); details: cited from earlier work

| Compound | MBEC (S. aureus biofilm) [µg/mL] | MBEC (K. pneumoniae biofilm) [µg/mL] | MBEC (A. baumannii biofilm) [µg/mL] | MBEC (P. aeruginosa biofilm) [µg/mL] | Adjusted Retention Time [1] [min] | MIC (C. glabrata ATCC 15126) [µg/mL] | IC50 (MTT assay, cytotoxicity) [µg/mL] | MIC (E. faecium ATCC 700221) | MIC (S. aureus ATCC 33591) | MIC [2] | MIC [3] | MIC (P. aeruginosa ATCC 9027) | MIC (K. aerogenes ATCC 13048) | HC50 (hemolytic activity) [4] [µg/mL] |
| --- | --- | --- | --- | --- | --- | --- | --- | --- | --- | --- | --- | --- | --- | --- |
| C12-RR-NH2 [Peptide C12-RR-NH2] | 64 | 512 | 512 | 512 |  |  |  |  |  |  |  |  |  |  |
| CCCCCCCCCCCCCC(=O)N[C@@H](CO)C(=O)N[C@@H](CCCNC(=N)N)C(=O)N[C@@H](CCCNC(=N)N)C(N)=O [Peptide 1, C14-SRR-NH2] (Myristoyl-Ser-Arg-Arg-NH2) |  |  |  |  | 16.55 | 32 (≈ 51 µM) | 1.41 ± 0.29 (≈ 2.25 µM) | 16 µg/mL and 16 * µg/mL | 16 * µg/mL | 128 * µg/mL | 32 * µg/mL | 32 * µg/mL | 128 * µg/mL | 41.54 ± 1.29 |
